Results reported in ChEMBL document CHEMBL2429821, “A Casein kinase 1/Checkpoint kinase 1 pyrazolo-pyridine protein kinase inhibitor as novel activator of the p53 pathway” (Bioorg Med Chem Lett, 2013).
Calls of active or inactive are those of the source. The calls are words filed in the database; no cut-off is given here.

How the values were obtained:
[1] = molecular target: T1, Casein kinase I/MDM2 (Homo sapiens) (UniProt Q00987+P48729); test: Inhibition of CK1-MDM2 complex in human A375 cells assessed as increase in p53 protein level at 0.2 to 5 uM after 48 hrs by immunoblotting analysis; type: cell-based; conditions: A-375
A-375 [2] = test: Cell cycle arrest in human A375 cells assessed as accumulation at sub-G1 phase at 80 uM after 48 hrs by FACS flow cytometric analysis (reference value: 2.17%); type: functional
A-375 [3] = test: Cell cycle arrest in human A375 cells assessed as accumulation at S phase at 20 uM after 48 hrs by FACS flow cytometric analysis (reference value: 25.1%); type: functional
A-375 [4] = test: Cell cycle arrest in human A375 cells assessed as accumulation at S phase at 10 uM after 48 hrs by FACS flow cytometric analysis (reference value: 25.1%); type: functional
A-375 [5] = test: Cell cycle arrest in human A375 cells assessed as accumulation at sub-G1 phase at 10 uM after 48 hrs by FACS flow cytometric analysis (reference value: 2.17%); type: functional
A-375 [6] = test: Cell cycle arrest in human A375 cells assessed as accumulation at G2-M phase at 5 uM after 48 hrs by FACS flow cytometric analysis (reference value: 17.3%); type: functional
A-375 [7] = test: Cytotoxicity against human A375 cells assessed as cell viability after 24 hrs by MTT assay; type: functional, cell-based; conditions: A-375, 24 h
[8] = molecular target: T2, Mitogen-activated protein kinase 14 (Homo sapiens, UniProt Q16539); test: Inhibition of human p38alpha MAPK in presence of 50 uM ATP
[9] = molecular target: Casein kinase I isoform delta (Rattus norvegicus, UniProt Q06486); test: Inhibition of rat CK1delta in presence of 20 uM ATP
[10] = molecular target: T3, Serine/threonine-protein kinase Chk1 (Homo sapiens, UniProt O14757); test: Inhibition of human CHK1 in presence of 20 uM ATP
T3 sequence (O14757 whole entry): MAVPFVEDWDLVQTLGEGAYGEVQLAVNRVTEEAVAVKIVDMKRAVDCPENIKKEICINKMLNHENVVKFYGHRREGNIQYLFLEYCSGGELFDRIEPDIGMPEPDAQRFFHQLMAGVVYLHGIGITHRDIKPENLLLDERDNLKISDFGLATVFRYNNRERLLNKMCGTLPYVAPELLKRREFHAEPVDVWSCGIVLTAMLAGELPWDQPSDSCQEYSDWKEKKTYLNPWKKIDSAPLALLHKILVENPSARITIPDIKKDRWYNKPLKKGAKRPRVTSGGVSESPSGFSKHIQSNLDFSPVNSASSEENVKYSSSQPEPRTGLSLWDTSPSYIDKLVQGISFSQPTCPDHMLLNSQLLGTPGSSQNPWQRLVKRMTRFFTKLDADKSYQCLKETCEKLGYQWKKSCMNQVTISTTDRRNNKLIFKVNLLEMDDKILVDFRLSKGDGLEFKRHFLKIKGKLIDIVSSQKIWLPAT

[11] = molecular target: T4, Mitogen-activated protein kinase 12 (Homo sapiens) (UniProt P53778); test: Inhibition of human p38gamma MAPK assessed as residual activity at 1 uM relative to control
T4 sequence (whole entry): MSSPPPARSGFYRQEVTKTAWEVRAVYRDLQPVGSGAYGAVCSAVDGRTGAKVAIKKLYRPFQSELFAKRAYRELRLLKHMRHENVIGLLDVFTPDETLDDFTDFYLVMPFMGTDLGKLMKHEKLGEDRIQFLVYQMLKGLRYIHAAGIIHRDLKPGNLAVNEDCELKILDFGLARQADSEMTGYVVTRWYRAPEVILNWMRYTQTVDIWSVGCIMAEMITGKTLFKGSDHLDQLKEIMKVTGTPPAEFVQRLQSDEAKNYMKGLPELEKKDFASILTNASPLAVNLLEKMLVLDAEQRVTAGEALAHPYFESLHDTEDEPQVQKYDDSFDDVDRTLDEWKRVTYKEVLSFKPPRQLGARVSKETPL

[12] = molecular target: T4, Mitogen-activated protein kinase 12 (Homo sapiens); test: Inhibition of human p38gamma MAPK assessed as residual activity at 10 uM relative to control
[13] = molecular target: Serine/threonine-protein kinase pim-2 (Homo sapiens) (UniProt Q9P1W9); test: Inhibition of human PIM2 assessed as residual activity at 10 uM relative to control
[14] = molecular target: MAP kinase-activated protein kinase 2 (Homo sapiens) (UniProt P49137); test: Inhibition of human MAPKAPK2 assessed as residual activity at 10 uM relative to control
[15] = molecular target: Mitogen-activated protein kinase 1 (Homo sapiens) (UniProt P28482); test: Inhibition of human MAPK2 assessed as residual activity at 10 uM relative to control
[16] = molecular target: T5, Mitogen-activated protein kinase 15 (Homo sapiens) (UniProt Q8TD08); test: Inhibition of human ERK8 assessed as residual activity at 1 uM relative to control
T5 sequence (whole entry): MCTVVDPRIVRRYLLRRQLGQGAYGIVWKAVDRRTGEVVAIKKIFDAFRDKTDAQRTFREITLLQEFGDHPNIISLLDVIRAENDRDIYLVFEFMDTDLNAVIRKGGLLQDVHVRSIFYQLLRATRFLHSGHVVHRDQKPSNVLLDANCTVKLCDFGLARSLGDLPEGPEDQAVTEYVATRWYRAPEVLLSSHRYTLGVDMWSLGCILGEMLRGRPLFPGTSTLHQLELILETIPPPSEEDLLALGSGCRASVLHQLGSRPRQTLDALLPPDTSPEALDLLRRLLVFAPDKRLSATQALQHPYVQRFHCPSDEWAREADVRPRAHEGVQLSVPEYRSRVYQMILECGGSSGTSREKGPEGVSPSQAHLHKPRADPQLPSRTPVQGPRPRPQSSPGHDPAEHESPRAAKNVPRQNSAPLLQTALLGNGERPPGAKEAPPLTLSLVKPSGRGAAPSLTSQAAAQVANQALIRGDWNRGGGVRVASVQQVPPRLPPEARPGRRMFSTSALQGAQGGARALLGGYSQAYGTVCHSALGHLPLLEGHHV

Homo sapiens = species on record: Homo sapiens; test: Inhibition of human VEGFR assessed as residual activity at 10 uM relative to control
[17] = molecular target: Serine/threonine-protein kinase Nek2 (Homo sapiens, UniProt P51955); test: Inhibition of human NEK2alpha in presence of 50 uM ATP
[18] = molecular target: T1, Casein kinase I/MDM2 (Homo sapiens); test: Inhibition of CK1-MDM2 complex in human A375 cells assessed as decrease in MDM2 protein level at 0.2 to 40 uM after 24 hrs by immunoblotting analysis; type: cell-based; conditions: A-375
[19] = molecular target: T2, Mitogen-activated protein kinase 14; test: Inhibition of human p38alpha MAPK assessed as residual activity at 1 uM relative to control
A-375 [20] = test: Cytotoxicity against human A375 cells assessed as reduction in cell number at 40 uM after 24 hrs by light microscopic analysis relative to control; type: functional, cell-based
[21] = molecular target: T1, Casein kinase I/MDM2 (Homo sapiens); test: Inhibition of CK1-MDM2 complex in human A375 cells assessed as decrease in E2F1 protein level after 48 hrs by immunoblotting analysis; type: cell-based; conditions: A-375
[22] = molecular target: T1, Casein kinase I/MDM2 (Homo sapiens); test: Inhibition of CK1-MDM2 complex in human A375 cells assessed as effect on p21 protein level at 0.2 to 80 uM after 48 hrs by immunoblotting analysis; type: cell-based; conditions: A-375

T2 sequence (Q16539 whole entry, canonical isoform): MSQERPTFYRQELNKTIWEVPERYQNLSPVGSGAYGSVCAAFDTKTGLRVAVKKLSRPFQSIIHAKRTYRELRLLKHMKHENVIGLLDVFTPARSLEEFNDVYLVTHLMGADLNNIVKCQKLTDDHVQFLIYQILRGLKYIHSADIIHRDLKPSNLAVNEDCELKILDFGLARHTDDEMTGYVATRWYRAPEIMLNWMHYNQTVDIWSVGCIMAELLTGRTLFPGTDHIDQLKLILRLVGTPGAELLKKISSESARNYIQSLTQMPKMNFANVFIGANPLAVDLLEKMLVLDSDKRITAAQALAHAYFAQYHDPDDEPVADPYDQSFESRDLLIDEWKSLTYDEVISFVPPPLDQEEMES
T1 sequence (P48729 whole entry, looked up): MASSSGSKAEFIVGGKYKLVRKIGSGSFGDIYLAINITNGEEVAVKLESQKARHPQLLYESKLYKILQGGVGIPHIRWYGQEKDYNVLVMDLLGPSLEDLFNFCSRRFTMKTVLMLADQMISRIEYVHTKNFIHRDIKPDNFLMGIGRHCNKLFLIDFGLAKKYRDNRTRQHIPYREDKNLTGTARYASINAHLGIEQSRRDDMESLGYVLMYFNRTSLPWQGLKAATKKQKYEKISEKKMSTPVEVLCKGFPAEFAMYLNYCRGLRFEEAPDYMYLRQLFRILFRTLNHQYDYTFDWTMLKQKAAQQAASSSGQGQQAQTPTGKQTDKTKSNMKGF
T1 sequence (Q00987 whole entry, looked up): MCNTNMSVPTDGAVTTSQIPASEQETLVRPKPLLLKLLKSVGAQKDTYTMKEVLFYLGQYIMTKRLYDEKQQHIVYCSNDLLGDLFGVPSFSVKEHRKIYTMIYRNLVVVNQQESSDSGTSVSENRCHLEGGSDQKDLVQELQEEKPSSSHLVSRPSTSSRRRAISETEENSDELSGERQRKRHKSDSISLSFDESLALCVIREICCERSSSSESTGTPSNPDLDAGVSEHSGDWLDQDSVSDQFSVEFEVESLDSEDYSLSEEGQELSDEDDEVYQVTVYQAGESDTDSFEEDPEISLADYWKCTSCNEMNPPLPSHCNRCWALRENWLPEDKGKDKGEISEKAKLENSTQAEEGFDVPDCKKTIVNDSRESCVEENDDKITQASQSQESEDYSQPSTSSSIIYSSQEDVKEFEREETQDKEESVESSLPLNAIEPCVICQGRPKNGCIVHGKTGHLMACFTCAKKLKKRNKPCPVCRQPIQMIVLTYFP
Chain of Mitogen-activated protein kinase 1 (Homo sapiens) (P28482 whole entry): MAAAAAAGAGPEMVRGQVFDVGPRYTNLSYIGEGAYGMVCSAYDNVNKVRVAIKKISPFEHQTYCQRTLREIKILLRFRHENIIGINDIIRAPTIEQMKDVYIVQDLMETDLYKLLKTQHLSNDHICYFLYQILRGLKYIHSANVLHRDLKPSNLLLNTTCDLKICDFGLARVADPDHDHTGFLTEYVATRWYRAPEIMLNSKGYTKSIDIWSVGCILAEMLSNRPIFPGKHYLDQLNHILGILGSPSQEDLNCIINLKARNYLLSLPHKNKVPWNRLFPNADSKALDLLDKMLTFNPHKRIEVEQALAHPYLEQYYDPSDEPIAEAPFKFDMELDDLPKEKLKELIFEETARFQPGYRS
Chain of Casein kinase I isoform delta (Q06486 whole entry, canonical isoform): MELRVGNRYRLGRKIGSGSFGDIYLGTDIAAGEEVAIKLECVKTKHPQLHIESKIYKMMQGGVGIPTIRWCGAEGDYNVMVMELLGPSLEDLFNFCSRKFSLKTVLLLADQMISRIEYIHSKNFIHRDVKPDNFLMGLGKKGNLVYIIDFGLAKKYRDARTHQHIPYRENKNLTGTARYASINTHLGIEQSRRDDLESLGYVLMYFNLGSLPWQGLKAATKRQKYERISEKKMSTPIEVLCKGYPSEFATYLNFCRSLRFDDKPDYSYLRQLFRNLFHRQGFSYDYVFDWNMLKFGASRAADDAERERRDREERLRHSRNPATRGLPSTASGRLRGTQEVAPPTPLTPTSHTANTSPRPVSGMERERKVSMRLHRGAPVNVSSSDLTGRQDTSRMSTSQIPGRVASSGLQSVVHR
Chain of MAP kinase-activated protein kinase 2 (Homo sapiens) (P49137 whole entry, looked up): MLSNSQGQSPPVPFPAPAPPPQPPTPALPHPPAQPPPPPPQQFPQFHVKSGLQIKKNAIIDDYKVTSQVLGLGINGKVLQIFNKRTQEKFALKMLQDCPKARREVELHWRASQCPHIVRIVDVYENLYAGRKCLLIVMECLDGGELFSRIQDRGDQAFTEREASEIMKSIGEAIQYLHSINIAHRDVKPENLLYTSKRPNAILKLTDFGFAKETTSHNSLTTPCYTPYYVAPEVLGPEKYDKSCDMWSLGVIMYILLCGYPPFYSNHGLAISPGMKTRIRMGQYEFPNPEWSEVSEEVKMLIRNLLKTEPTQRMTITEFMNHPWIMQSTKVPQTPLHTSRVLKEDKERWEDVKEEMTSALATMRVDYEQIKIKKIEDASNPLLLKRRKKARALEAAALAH
Chain of Serine/threonine-protein kinase pim-2 (Homo sapiens) (Q9P1W9 whole entry, looked up): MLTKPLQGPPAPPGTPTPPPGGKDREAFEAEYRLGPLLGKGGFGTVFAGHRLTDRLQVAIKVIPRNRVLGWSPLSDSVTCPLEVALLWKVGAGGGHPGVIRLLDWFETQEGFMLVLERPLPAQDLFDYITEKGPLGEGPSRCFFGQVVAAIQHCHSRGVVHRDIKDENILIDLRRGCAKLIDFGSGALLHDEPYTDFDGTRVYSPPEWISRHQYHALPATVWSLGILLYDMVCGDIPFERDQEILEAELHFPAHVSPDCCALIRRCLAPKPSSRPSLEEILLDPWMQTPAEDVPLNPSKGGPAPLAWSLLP
Chain of Serine/threonine-protein kinase Nek2 (P51955 whole entry): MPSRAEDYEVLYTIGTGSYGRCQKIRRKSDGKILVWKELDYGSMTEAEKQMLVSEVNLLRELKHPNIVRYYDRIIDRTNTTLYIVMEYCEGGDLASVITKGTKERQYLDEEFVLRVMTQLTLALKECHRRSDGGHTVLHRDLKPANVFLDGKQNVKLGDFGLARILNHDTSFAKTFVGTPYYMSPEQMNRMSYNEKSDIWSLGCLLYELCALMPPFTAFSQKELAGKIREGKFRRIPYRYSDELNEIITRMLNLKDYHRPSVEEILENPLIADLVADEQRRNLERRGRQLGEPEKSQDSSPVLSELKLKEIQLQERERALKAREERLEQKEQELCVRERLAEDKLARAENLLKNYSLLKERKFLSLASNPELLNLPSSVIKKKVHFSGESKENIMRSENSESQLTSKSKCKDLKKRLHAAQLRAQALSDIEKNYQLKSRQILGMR

Row | Structure (SMILES) | Activity (A-375 [2]) | IC50 [9] | Activity [11] | Activity [12] | Activity [13] | Activity [14] | Activity [15] | Activity [16] | Activity (Homo sapiens) | also measured
1 | CC(=O)Nc1cccc(-c2cnc3[nH]nc(C)c3c2)c1 | 45.7% | 893 nM | 117% | 95.6% | 58.7% | 96.4% | 82.7% | 45.3% | 20.3% | inhibition [1]: Active; Activity (A-375 [3]): 14.2%; Activity (A-375 [4]): 12.6%; Activity (A-375 [5]): 34.3%; Activity (A-375 [6]): 15.9%; IC50 (A-375 [7]): 8000 nM; IC50 [8]: Not Active; IC50 ([10]; read-out: IC50): 232 nM; IC50 [17]: 2000 nM
2 | CCCC(=O)Nc1n[nH]c2ncc(-c3cccnc3)cc12 | – | – | – | – | – | – | – | – | – | inhibition [18]: Active; Activity [19]: 84%
3 | CC(=O)Nc1nccc(-c2c(-c3ccccc3)noc2C)n1 | 3.32% | 838 nM | 97.1% | 93% | 103% | 124% | 93% | 91.1% | 50.8% | Activity (A-375 [20]): inactive; inhibition [21]: Dose-dependent effect; inhibition [22]: inactive; IC50 ([8]; read-out: IC50): 2040 nM; IC50 [10]: Not Active
